Each block holds one molecule with its values, some of them ahead of it.
Key:
[1] = Half life in iv dosed human; type: ADME, organism-based; details: in vivo
[2] = Clearance in end-stage renal disease patient undergoing drug hydrolysis; type: ADME; details: human
[3] = Clearance in end-stage renal disease patient without drug hydrolysis; type: ADME; details: human
Blood [4] = test: Drug uptake in end-stage renal disease patient blood at 0.5 g, iv; type: ADME, tissue-based; details: human
Blood [5] = test: Drug uptake in end-stage renal disease patient blood at 0.75 g, iv; type: ADME, tissue-based; details: human
[6] = Ratio of drug level in serum to cerebrospinal fluid in human; type: ADME
Mus musculus = test: Anti-inflammatory activity in mouse model of CLP-induced sepsis assessed as survival time at 25 ug/g, sc in presence of atorvastatin (reference value: 20 +/- 1.66 hrs); type: functional
[7] = Elimination half life in human at 1 g, iv administered as single dose; type: ADME, organism-based; details: in vivo, read-out: beta t1/2 (converted)
Plasma = test: Protein binding in human plasma at < 50 ug/ml; type: ADME, cell-free
Staphylococcus aureus [8] = test: Potentiation of imipenem-induced antibacterial activity against methicillin-reisitant Staphylococcus aureus assessed as fold reduction in imipenem MIC at 10 ug/ml measured after 20 hrs by liquid microdilution method relative to imipenem alone; type: functional
Staphylococcus aureus [9] = test: Potentiation of imipenem-induced antibacterial activity against methicillin-reisitant Staphylococcus aureus assessed as imipenem MIC (reference value: 16 ug/ml); type: functional

Compound: C[C@@H](O)[C@H]1C(=O)N2C(C(=O)O)=C(SCCNC=N)C[C@H]12 [IMIPENEM ANHYDROUS]
half-life [1]: 1 h | Survival (Mus musculus): 56 h

Compound: C=C/C(C)=C/C[C@@H]1[C@@]2(C)CCCC(C)(C)[C@@H]2C[C@H](O)[C@]1(O)CSC[C@H](NC(C)=O)C(=O)OC
fold change (FC) (Staphylococcus aureus [8]): 533

Compound: C=C/C(C)=C/C[C@@H]1[C@@]2(C)CCC[C@](C)(CO)[C@@H]2C[C@H](O)[C@]1(O)CSC[C@H](NC(C)=O)C(=O)O
fold change (FC) (Staphylococcus aureus [8]): 123

Compound: O=C(O)CCNC(=O)c1ccccc1 [BETAMIPRON]
Drug uptake (Blood [4]): 24 mg/L | Drug uptake (Blood [5]): 39 mg/L

Compound: C=C/C(C)=C/C[C@@H]1[C@@]2(C)CCCC(C)(C)[C@@H]2C[C@H](O)[C@]1(O)CSC[C@H](NC(C)=O)C(=O)O
MIC (Staphylococcus aureus [9]): 0.05 µg/mL

Next, values leading:

half-life [1]: 1.2 h | clearance [2]: 159 mL/min | clearance [3]: 48.7 mL/min | Drug uptake (Blood [4]): 37 mg/L | Drug uptake (Blood [5]): 61 mg/L | Ratio [6]: 8
Compound: CC(=N)N1CC[C@H](SC2=C(C(=O)O)N3C(=O)[C@H]([C@@H](C)O)[C@H]3C2)C1 [PANIPENEM]

half-life [7]: 4 h | PPB (Plasma): 94%
Compound: C[C@@H](O)[C@H]1C(=O)N2C(C(=O)O)=C(S[C@@H]3CN[C@H](C(=O)Nc4cccc(C(=O)O)c4)C3)[C@H](C)[C@H]12 [ERTAPENEM]

Source: ChEMBL document CHEMBL4017442, “Recent updates of carbapenem antibiotics” (Eur J Med Chem, 2017)
